Reference: patent US12440571B2, “Immune agonists” (SHENZHEN UNIVERSITY, priority 2020, dated 2025)
Read-outs that look alike come from different tables or passages of the source.

Experiments:
Assay type in all cases: cell-based
[1] = system: murine spleen lymphocytes; test: Cytokine stimulation of murine spleen lymphocytes, ELISA; conditions: Lymphocyte, mouse immune cells (spleen lymphocytes), 24 hrs, ELISA
Description: The stimulating effect of a series of GY compounds or drugs on murine spleen lymphocytes was detected by ELISA.
6-week-old Balb/c mice were sacrificed by cervical dislocation, spleens were taken under aseptic conditions. A 1 mL sterile syringe and a 200 mesh cell strainer were adopted to quickly grind and disperse the spleen into individual cells in 4 mL of a murine lymphocyte separation solution (Dakko's, 7211011). A resulting cell homogenate was transferred to a 15 mL centrifuge tube, then 1 mL of a RPMI 1640 medium (Hyclone, SH30809.01) was slowly added. Spleen lymphocytes were separated by a density gradient centrifugation method (800×g, 30 min), washed, red blood cells therein were lysed, such that a dispersed spleen lymphocyte suspension was obtained. Cells were counted by a hemocytometer, to calculate the cell concentration. A RPMI 1640 complete medium was adopted to adjust the cell suspension to a concentration of 1×10^6/ml/well, and the cells were then plated on a 24-well cell culture plate (Corning, 3524).
Murine spleen lymphocytes were stimulated according to the gradient concentrations of the series of GY compounds or drugs, and incubated in a 37° C., 5% carbon dioxide incubator for 24 hrs.
• (1) Coating: a Capture antibody (primary antibody, purchased from Invitrogen) was diluted with a 1×Coating Buffer (coating buffer, purchased from Invitrogen) to a recommended concentration, and 100 μL of a resulting diluted solution was added to each well of a 96-well microtiter plate, the plate was sealed with a sealing film at 4° C. overnight. • (2) Washing: a liquid in each well was discarded, then 300 μL of a PBST working solution was added to each well and kept for 1 min, thereafter, the liquid therein was discarded. The washing process was repeated 3 times. • (3) Blocking: 200 μL of a blocking solution was added to each well. The plate was sealed with a sealing film, and placed on a shaker and incubated at room temperature for 1 hr, then washed and patted to be dry. • (4) Sample incubation: a sample was collected and centrifuged to collect a supernatant. Standards, samples, negative controls, and blank controls were provided in the 96-well microtiter plate, and each concentration or sample were provided with 2 replicates. 100 μL of a standard or sample was added to each well, thereafter, the plate was sealed with a sealing film, incubated on a shaker at room temperature for 1 hr or overnight at 4° C., then washed and pated to be dry. • (5) Secondary antibody incubation: the detection antibody (secondary antibody, purchased from Invitrogen) was diluted to a recommended concentration with a dilution buffer, 100 μL of a secondary antibody was added to each well. After being sealed with a sealing film, the plate was incubated on a shaker at room temperature for 1 hr, then washed and patted to be dry. • (6) Avidin-HRP incubation: Avidin-HRP (horseradish peroxidase marker, purchased from Invitrogen) was diluted to the recommended concentration with a dilution buffer, 100 μL of Avidin-HRP was added to each well. After being sealed with a sealing film, the plate was placed on a shaker and incubated at room temperature for 30 mins, washed 5-7 times by the process of step 2), and patted to be dry. • (7) TMB color development: 100 μL of a TMB color development solution (purchased from Invitrogen) was added to each well, for carrying out reaction for 15 mins at room temperature in the dark. • (8) Stopping reaction: 50 μL of 1M H2SO4 solution was added to each well. • (9) Reading an absorbance value by a microplate reader: the OD value at 450 nm wavelength was read. A standard curve and a parameter nonlinear regression equation were drawn, and a sample concentration was calculated according to the obtained formula.

[2] = system: murine colon cancer CT-26 cells; test: CCK8 growth inhibition, CT26; conditions: Mus musculus, CCK8 method, read-out: IC50 of inhibitory activity on tumor cell growth, CT26
[3] = system: Murine breast cancer 4T1 cells; test: CCK8 growth inhibition, 4T1; conditions: Mus musculus, CCK8 method, 24 hrs (or 36, 72 hrs), read-out: IC50 of inhibitory activity on tumor cell growth, 4T1
Description: Murine breast cancer 4T1 cells (Kailian Biotech, KG338) in a logarithmic growth phase were selected and washed with PBS, digested with 0.25% trypsin (including EDTA), stopped digestion with a DMEM complete medium, then centrifuged, and resuspended to form a suspension of 4T1 single cells. Cells were counted using a hemocytometer and a cell concentration was calculated. A DMEM complete medium was used to adjust the cell suspension to a target concentration, and thereafter, the cells were plated on a 96-well cell culture plate according to 4×10^3/100 μL per well. After adherering to the wall, the 4T1 cells were stimulated according to the designed concentration gradients of the series of GY compounds or drugs, with each concentration being provided with 3 replicate holes. The 96-well cell culture plate with 4T1 cells seeded and dosing was placed in the cell incubator, and incubated at 37° C., 5% carbon dioxide for 24 hrs (or 36, 72 hrs). After the incubation time was over, 10 μL of CCK8 reagent was added to each well and incubated for 1-2 hrs at 37° C. A full-wavelength microplate reader was adopted to test an OD value at 450 nm wavelength.
CCK8 calculation formula is as follows: • Cell survival rate (100%)=[…]/(Ac−Ab)×100% • As: Absorbance of wells containing cells, CCK8 solution, and drug solution • Ac: Absorbance of wells containing cells and CCK8 solution, and no drug solution • Ab: Absorbance of wells containing CCK8 solution, no cells, and no drug solution
Cell growth inhibition rate (%)=1−((OD value of experimental group−OD value of blank group)/(OD value of control group−OD value of blank group)×100%).

[4] = read-out: IFN-gamma EC50 of cytokine stimulating activity
[5] = read-out: IL-6 EC50 of cytokine stimulating activity
[6] = read-out: TNF-alpha EC50 of cytokine stimulating activity

| EC50 [1, 4] [nM] | EC50 [1, 5] [nM] | EC50 [1, 6] [nM] | IC50 [2] [nM] | IC50 [3] [nM] | SMILES |
| --- | --- | --- | --- | --- | --- |
| 8300 | 314 | 914 | 25000 | 1450 | CCCCOc1nc(N)c2nc(O)n(Cc3cn(CCOCCOCCOCCNC(=S)N4CCCC(n5nc(-c6ccc(Oc7ccccc7)cc6)c6c(N)ncnc65)C4)nn3)c2n1 (stereo not drawn) [GY112] |
| 753 | 83 | 248 | 16900 | 17300 | CCCCOc1nc(N)c2nc(O)n(Cc3cn(CCOCCOCCOCCNC(=S)Nc4cc(Nc5nccc(-c6cn(C)c7ccccc67)n5)c(OC)cc4N(C)CCN(C)C)nn3)c2n1 [GY127] |
| 1530 | 6 | 11 | 6150 | 780 | CCCCOc1nc(N)c2nc(O)n(Cc3cn(CCCCN4CCN(CCCNC(=S)N5CCCC(n6nc(-c7ccc(Oc8ccccc8)cc7)c7c(N)ncnc76)C5)CC4)nn3)c2n1 (stereo not drawn) [GY161] |
